Test results reported in US20100196492A1, “ELECTROSTATIC COATING OF PARTICLES FOR DRUG DELIVERY” (priority 2007, published 2010).

Key:
LS174T cells = assay: Cytotoxicity of gelonin coated C32/DNA particles; format: cell-based; details: single treatment; 70 w/w C32, 600 ng DNA, 100 nM gelonin; colon cancer cells
Method: FIG. 14. Cytotoxity of composition on cells using a cytotoxic drug itself as the coating. 70 w/w C32 particles with 600 ng DNA were coated with 100 nM gelonin (a 28 kD protein) to test the cytotoxicity of the compostion in LS174T cells.
Unformulated gelonin is unable to reach the cytoplasm unassisted. In constrast, the gelonin coated nanoparticles are able to be effectively internalized into the cell and released from the endosomal compartment into the cytoplasm, where they are active.

HUVECs = assay: GFP transfection of confluent HUVECs in 12% serum, FACS; format: cell-based, Human; details: 40 w/w C32; N/P 1.55
Source text: GFP Transfections. Fluorescent Activated Cell Sorting (FACS) and enhanced green fluorescent protein (EGFP) DNA were utilized to determine the efficacy of nanoparticle gene delivery. FACS data was interpreted by using a two-dimensional contour plot that compares the ratio of EGFP channel fluorescence (x-axis) to yellow channel autofluorescence (y-axis) for greater accuracy than a one-dimensional histogram as previously described. […] These experiments took place under conditions generally seen as difficult for in vitro transfection, but important for an in vivo cardiovascular application: fully confluent, and therefore non-dividing, primary cells in the presence of a high concentration of serum proteins.
GFP Transfections. Non-viral nanoparticle transfections were performed on confluent HUVECs in the presence of 12% serum. HUVECs were seeded (75,000 cells/well) into clear 24-well plates (Becton Dickinson, Franklin Lakes, N.J., USA) at 24 hours prior to transfection to allow for growth to confluence. Nanoparticles were constructed as previously mentioned using a 6 μg DNA basis per well. Then 150 μL of each polymer/DNA/peptide nanoparticle solution was added to 1.00 mL of FBS supplemented EGM-2 media (12% Serum). […]
Flow Cytometry. GFP expression was measured using Fluorescence Activated Cell Sorting (FACS) on a FACSCalibur (Becton Dickinson, San Jose, Calif., USA). […]

Substance | cells killed (LS174T cells) | transfection of HUVECs (FACS gating of GFP) (HUVECs)
gelonin | unable to kill any of the cells | –
EEEEEEEEEEEEGGGGGGGRDGS [E12-RDG] | – | do not
